Test results from patent US6756362B2, “Methods and compositions based on inhibition of cell invasion and fibrosis by anionic polymers” (priority 1991, dated 2004).

How the values were obtained:
[1] = system: MCG-28 young immortalized mouse astrocyte; assay: Stripe assay, MCG-28; type: cell-based; design: key: Bands that were completely inhibitory to cell adhesion, migration and/or invasion were evaluated as (−); those allowing limited cell adhesion, migration and/or invasion (+/−); those permissive to cell adhesion, migration and/or invasion as (+); conditions: MCG28; for DS-PG Effect on Adhesion, Migration and Invasion: 2 days following plating
Description: (§1) Cell lines. Murine 3T3 fibroblast (NIH), rat C6 glioma (Paganetti et al., 1988, J. Cell Biol. 107:2281) and MCG-28 young immortalized mouse astrocyte (a murine neonatal astrocyte line immortalized with SV-40) were grown in medium composed of Dulbecco's modified Eagle medium (DMEM), 10% fetal calf serum (Gibco Laboratories), and penicillin G/streptomycin (100 units/ml, 100 μg/ml respectively, Gibco Laboratories). For the stripe assay, confluent plates were disaggregated with 0.05% trypsin, 0.53 mM EDTA (Gibco Laboratories) and seeded at 200,000 cells/ml (3 ml/plate). For the cell adhesion assays, confluent cultures were disaggregated with 0.03% EDTA and plated in a 96-well microtiter plate at 20,000-100,000 cells per well. PC12 cells, a pheochromocytoma cell line (Green L. A. & Tischler A. S., 1976, Proc. Natl. Acad. Sci. U.S.A. 73:2424), were grown in medium containing Roswell Park Memorial Institute (RPMI) medium 1640 (Gibco Laboratories), 10% horse serum, 5% fetal calf serum (FCS), and penicillin G/streptomycin (100 units/ml, 100 μg/ml respectively, Gibco Laboratories). The cells were disaggregated with 0.03% EDTA and plated in a 96-well microtiter plate at 3,000 cells per well.
(§2) The stripe assay was performed essentially as described by Snow et al. (1990, Exp. Neural. 309:111-130). Tissue culture Petri dishes (Falcon, 60 mm) were precoated with 0.5 ml of a mixture of 5 cm^2 section nitrocellulose (Schleicher & Schuell, Type BA 85) dissolved in 6 ml methanol, and air dried in a laminar flow hood. Cellulose filter paper (Whatman #1) was cut into 12×0.35 mm strips with a McIlwain tissue chopper (The Mickle Laboratory Engineering Co., LTD). A strip of filter paper was soaked in 20 μl of a solution of DS-PG or KS/CS-PG and LN at given concentration, blotted onto the nitrocellulose-coated dish for 30 sec. and removed. The test solution was allowed to air dry. This process was repeated several times creating clearly defined, equally spaced parallel bands of uniform width on the plates. A thin layer of 0.1 or 1 mg/ml LN was then spread evenly across the bands with a bent glass Pasteur pipet, and covered with culture medium (FIG. 1).
(§3) Plates were seeded with cell suspensions of 2.0×10^5 cells/ml or 4-10 DRG explants. The cultures were assessed for degree of adhesion, migration and/or invasion of the DS-PG or KS/CS-PG bands over a period of up to 7 days using a Leitz Fluovert microscope.
(§4) Bands that were completely inhibitory to cell adhesion, migration and/or invasion were evaluated as (−), those allowing limited cell adhesion, migration and/or invasion (+/−), and those permissive to cell adhesion, migration and/or invasion as (+). cell adhesion was defined as the initial interaction between the cell surface and the substratum which results in cell attachment and spreading. Cell migration was operationally defined as cell movement within the same substratum, and cell invasion was operationally defined as cell movement from one type of substratum to another type of substratum.

rat astrocytes (RAST) = assay: Stripe assay, RAST; type: cell-based; design: key: Bands that were completely inhibitory to cell adhesion, migration and/or invasion were evaluated as (−); those allowing limited cell adhesion, migration and/or invasion (+/−); those permissive to cell adhesion, migration and/or invasion as (+); conditions: for DS-PG Effect on Adhesion, Migration and Invasion: 2 days following plating
Description: Rat astrocytes (RAST) cultures were prepared from P-1-3 rat brain cortices. The cortices were stripped of connective tissue and blood vessels, cut into small pieces and dissociated in 0.5% collagenase (Gibco Laboratories) for 20 min at 37° C., followed by further dissociation in 0.25% trypsin for 15 min, and 0.04 mg/ml DNAse (Sigma) and 0.52 mg/ml soy bean trypsin inhibitor for 5 min at 37° C. The cells were subsequently mechanically dissociated by trituration with a Pastuer pipette and plated at 1.5×10^7 cells in a poly-L-lysine (PLL, Sigma) coated 75 cm^2 flask. The flask was shaken 4 hrs following plating to remove less adherent non-astrocytic oligodendrocytes and neurons.
as §2, §3, §4

Murine 3T3 fibroblast = assay: Stripe assay, 3T3; type: cell-based, mouse; design: key: Bands that were completely inhibitory to cell adhesion, migration and/or invasion were evaluated as (−); those allowing limited cell adhesion, migration and/or invasion (+/−); those permissive to cell adhesion, migration and/or invasion as (+); conditions: for DS-PG Effect on Adhesion, Migration and Invasion / Effect of KS/CS-PG on Cell Migration: 3T3; for DS-PG Effect on Adhesion, Migration and Invasion: 2 days following plating
Description: as §1, §2, §3, §4

rat C6 glioma = assay: Stripe assay, C6; type: cell-based; design: key to DS-PG Effect on Adhesion, Migration and Invasion / Effect of KS/CS-PG on Cell Migration: Bands that were completely inhibitory to cell adhesion, migration and/or invasion were evaluated as (−); those allowing limited cell adhesion, migration and/or invasion (+/−); those permissive to cell adhesion, migration and/or invasion as (+); conditions: for DS-PG Effect on Adhesion, Migration and Invasion / Effect of KS/CS-PG on Cell Migration: C6; for DS-PG Effect on Adhesion, Migration and Invasion: 2 days following plating
Description: as §1, §2, §3, §4

[2] = system: epidural fibrosis at laminectomy site, Lewis inbred rats; assay: Epidural fibrosis after lumbar laminectomy in rats, gross evaluation; type: in vivo, rat; design: scale not given here; conditions: Table 4; 20 mg/ml; 4 weeks post-implantation
[3] = 0.1 mg/ml DS-PG + 20 μg/ml LN stripes
[4] = 0.2 mg/ml DS-PG + 20 μg/ml LN stripes
[5] = 0.4 mg/ml DS-PG + 20 μg/ml LN stripes
[6] = 0.8 mg/ml DS-PG + 20 μg/ml LN stripes
[7] = 0.25 mg/ml KS/CS-PG + LN stripes
[8] = 0.5 mg/ml KS/CS-PG + LN stripes
[9] = 1.0 mg/ml KS/CS-PG + LN stripes
[10] = 2.7 mg/ml KS/CS-PG + LN stripes

## Dermatan sulfate proteoglycan [DS-PG]
[1]; [3]
  DS-PG Effect on Adhesion, Migration and Invasion: +
[1]; [4]
  DS-PG Effect on Adhesion, Migration and Invasion: +
[1]; [5]
  DS-PG Effect on Adhesion, Migration and Invasion: −
[1]; [6]
  DS-PG Effect on Adhesion, Migration and Invasion: −
Rat astrocytes (RAST); [3]
  DS-PG Effect on Adhesion, Migration and Invasion: +
Rat astrocytes (RAST); [4]
  DS-PG Effect on Adhesion, Migration and Invasion: +/−
Rat astrocytes (RAST); [5]
  DS-PG Effect on Adhesion, Migration and Invasion: +/−
Rat astrocytes (RAST); [6]
  DS-PG Effect on Adhesion, Migration and Invasion: −
Murine 3T3 fibroblast; 0.1 mg/ml (1.25 μM), 1d
  Time Dependent Effect of DS-PG on 3T3 Cell Migration: +
Murine 3T3 fibroblast; 0.1 mg/ml (1.25 μM), 2d
  Time Dependent Effect of DS-PG on 3T3 Cell Migration: +
Murine 3T3 fibroblast; 0.1 mg/ml (1.25 μM), 3d
  Time Dependent Effect of DS-PG on 3T3 Cell Migration: +
Murine 3T3 fibroblast; 0.1 mg/ml (1.25 μM), 4d
  Time Dependent Effect of DS-PG on 3T3 Cell Migration: +
Murine 3T3 fibroblast; 0.1 mg/ml (1.25 μM), 7d
  Time Dependent Effect of DS-PG on 3T3 Cell Migration: +
Murine 3T3 fibroblast; [3]
  DS-PG Effect on Adhesion, Migration and Invasion: +
Murine 3T3 fibroblast; 0.2 mg/ml (2.5 μM), 1d
  Time Dependent Effect of DS-PG on 3T3 Cell Migration: +/−
Murine 3T3 fibroblast; 0.2 mg/ml (2.5 μM), 2d
  Time Dependent Effect of DS-PG on 3T3 Cell Migration: +/−
Murine 3T3 fibroblast; 0.2 mg/ml (2.5 μM), 3d
  Time Dependent Effect of DS-PG on 3T3 Cell Migration: +/−
Murine 3T3 fibroblast; 0.2 mg/ml (2.5 μM), 4d
  Time Dependent Effect of DS-PG on 3T3 Cell Migration: +/−
Murine 3T3 fibroblast; 0.2 mg/ml (2.5 μM), 7d
  Time Dependent Effect of DS-PG on 3T3 Cell Migration: +
Murine 3T3 fibroblast; [4]
  DS-PG Effect on Adhesion, Migration and Invasion: +/−
Murine 3T3 fibroblast; 0.4 mg/ml (5 μM), 1d
  Time Dependent Effect of DS-PG on 3T3 Cell Migration: −
Murine 3T3 fibroblast; 0.4 mg/ml (5 μM), 2d
  Time Dependent Effect of DS-PG on 3T3 Cell Migration: −
Murine 3T3 fibroblast; 0.4 mg/ml (5 μM), 3d
  Time Dependent Effect of DS-PG on 3T3 Cell Migration: −
Murine 3T3 fibroblast; 0.4 mg/ml (5 μM), 4d
  Time Dependent Effect of DS-PG on 3T3 Cell Migration: −
Murine 3T3 fibroblast; 0.4 mg/ml (5 μM), 7d
  Time Dependent Effect of DS-PG on 3T3 Cell Migration: +/−
Murine 3T3 fibroblast; [5]
  DS-PG Effect on Adhesion, Migration and Invasion: −
Murine 3T3 fibroblast; 0.8 mg/ml (10 μM), 1d
  Time Dependent Effect of DS-PG on 3T3 Cell Migration: −
Murine 3T3 fibroblast; 0.8 mg/ml (10 μM), 2d
  Time Dependent Effect of DS-PG on 3T3 Cell Migration: −
Murine 3T3 fibroblast; 0.8 mg/ml (10 μM), 3d
  Time Dependent Effect of DS-PG on 3T3 Cell Migration: −
Murine 3T3 fibroblast; 0.8 mg/ml (10 μM), 4d
  Time Dependent Effect of DS-PG on 3T3 Cell Migration: −
Murine 3T3 fibroblast; 0.8 mg/ml (10 μM), 7d
  Time Dependent Effect of DS-PG on 3T3 Cell Migration: +/−
Murine 3T3 fibroblast; [6]
  DS-PG Effect on Adhesion, Migration and Invasion: −
Rat C6 glioma; [3]
  DS-PG Effect on Adhesion, Migration and Invasion: +
Rat C6 glioma; [4]
  DS-PG Effect on Adhesion, Migration and Invasion: +/−
Rat C6 glioma; [5]
  DS-PG Effect on Adhesion, Migration and Invasion: −
Rat C6 glioma; [6]
  DS-PG Effect on Adhesion, Migration and Invasion: −
Rat C6 glioma; 0.8 mg/ml DS-PG, followed up to 6 days
  stability of clear stripes (inhibition of C6 cells): ≥ 4 days

## dextran [reference compound]
[2]
  TOTAL SCORE 4 WEEKS: 10.0 ± 1.2

## dextran sulfate
[2]
  TOTAL SCORE 4 WEEKS: 1.8 ± 0.9

## keratan sulfate/chrondroitin sulfate-proteoglycans [KS/CS-PG]
[1]; [7]
  Effect of KS/CS-PG on Cell Migration: +
[1]; [8]
  Effect of KS/CS-PG on Cell Migration: +
[1]; [9]
  Effect of KS/CS-PG on Cell Migration: +
[1]; [10]
  Effect of KS/CS-PG on Cell Migration: +/−
Rat astrocytes (RAST); 0.12 mg/ml KS/CS-PG + LN stripes
  Effect of KS/CS-PG on Cell Migration: +
Rat astrocytes (RAST); [7]
  Effect of KS/CS-PG on Cell Migration: +/−
Rat astrocytes (RAST); [8]
  Effect of KS/CS-PG on Cell Migration: +/−
Rat astrocytes (RAST); [9]
  Effect of KS/CS-PG on Cell Migration: +/−
Rat astrocytes (RAST); [10]
  Effect of KS/CS-PG on Cell Migration: −
Murine 3T3 fibroblast; [7]
  Effect of KS/CS-PG on Cell Migration: +
Murine 3T3 fibroblast; [8]
  Effect of KS/CS-PG on Cell Migration: +/−
Murine 3T3 fibroblast; [9]
  Effect of KS/CS-PG on Cell Migration: +/−
Murine 3T3 fibroblast; [10]
  Effect of KS/CS-PG on Cell Migration: −
Rat C6 glioma; [7]
  Effect of KS/CS-PG on Cell Migration: +
Rat C6 glioma; [8]
  Effect of KS/CS-PG on Cell Migration: +
Rat C6 glioma; [9]
  Effect of KS/CS-PG on Cell Migration: +
Rat C6 glioma; [10]
  Effect of KS/CS-PG on Cell Migration: +/−
Rat C6 glioma; 2.7 mg/ml KS/CS-PG, following plating
  time by which C6 overcame inhibition: ≤ 48 h
